The values below come from ChEMBL document CHEMBL1121919, “13N-labeled L-amino acids for in vivo assessment of local myocardial metabolism” (J Med Chem, 1981).

The species named for data set [1] is Canis familiaris. Description: Ischemic myocardial residue fraction of [13N]-labeled amino acid was observed with a single pass uptake technique in open-chest instrumented dogs (control - 18.5+/-2.1). In kind it is functional, Canis lupus familiaris.
Data set [2] is filed under the species Canis familiaris. Description: Ischemic myocardial half-life measured after intracoronary injection of [13N]-labeled amino acid in dogs (control - 88+/-2). Conditions: dog, in vivo, other. It is filed as ADME, organism-based, Canis lupus familiaris, Myocardium.
Data set [3] is filed under the species Canis familiaris. Description: Ischemic myocardial residue fraction of [13N]-labeled amino acid was observed with a single pass uptake technique in open-chest instrumented dogs (control - 14+/-4.2). In kind it is functional, Canis lupus familiaris.
The species entered for data set [4] is Canis familiaris. Description: Ischemic myocardial half-life measured after intracoronary injection of [13N]-labeled amino acid in dogs (control - 147+/-12). It is filed as ADME, organism-based, Canis lupus familiaris. Conditions: dog, in vivo, other.
For data set [5], the species on record is Canis familiaris. Description: Ischemic myocardial half-life measured after intracoronary injection of [13N]-labeled amino acid in dogs (control - 114.1+/-26.5). It is filed as ADME, organism-based, Canis lupus familiaris, Myocardium. The note with it: dog, in vivo, other.
For data set [6], the species on record is Canis familiaris. The data set can be described thus: Ischemic myocardial residue fraction of [13N]-labeled amino acid was observed with a single pass uptake technique in open-chest instrumented dogs (control - 8.1+/-3.1). In kind it is functional, Canis lupus familiaris.
Data set [7] is filed under the species Canis familiaris. The data set can be described thus: Ischemic myocardial half-life measured after intracoronary injection of [13N]-labeled amino acid in dogs (control - 15.9+/-0.2). In kind it is ADME, organism-based, Canis lupus familiaris, Myocardium. Conditions: dog, in vivo, other.
The species named for data set [8] is Canis familiaris. Description: Ischemic myocardial residue fraction of [13N]-labeled amino acid was observed with a single pass uptake technique in open-chest instrumented dogs (control - 17.3+/-6.1). It is filed as functional, Canis lupus familiaris.

Consider `C[C@H](N)C(=O)O` [ALANINE], for which the Residue fraction in the data set listed under Canis familiaris [1] turned out to be 19.5%. The T1/2 in the data set listed under Canis familiaris [2] is 1.29 h.

For the compound `N[C@@H](CC(=O)O)C(=O)O` [ASPARTIC ACID], in the data set listed under Canis familiaris [3], the Residue fraction was 17%. In the data set filed under Canis familiaris [4], this compound registered a T1/2 of 2.87 h.

As to `N[C@@H](CCC(=O)O)C(=O)O` [GLUTAMIC ACID], the T1/2 in the data set listed under Canis familiaris [5] turned out to be 1.35 h. In addition, the Residue fraction in the data set listed under Canis familiaris [6] came out at 11.5%.

`NC(=O)CC[C@H](N)C(=O)O` [GLUTAMINE]: the T1/2 in the data set listed under Canis familiaris [7] worked out at 0.292 h. The same compound yielded a Residue fraction in the data set listed under Canis familiaris [8] of 20.5%.
